24 molecules from patent US10745382B2 (BRISTOL-MYERS SQUIBB COMPANY, priority 2015, dated 2020) can be followed below.

Read-outs that look alike come from different tables or passages of the source.

This assay addresses T1, PD-1/PD-L1 (Homo sapiens, UniProt Q9NZQ7).
T1 construct: made in house; host or cells: HEK293T
Put plainly: PD-1/PD-L1 Homogenous Time-Resolved Fluorescence (HTRF) binding assay. To be noted: PD-L1-His 10 nM, PD-1-Ig 20 nM, read-out: Range or IC50. Summed up:
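Binding measured in dPBS with 0.1% BSA and 0.05% Tween-20, detected by HTRF with europium cryptate anti-Ig (1 nM final) and APC anti-His (20 nM final) added over the binding reaction. Counter-assays used human PD-1-Ig/PD-L2-His (20 and 5 nM) and CD80-His/PD-L1-Ig (100 and 10 nM).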
(In TR-FRET formats the signal depends on donor and acceptor labels being close together.)

T1 sequence (Q9NZQ7 with tags, fused parts or gaps): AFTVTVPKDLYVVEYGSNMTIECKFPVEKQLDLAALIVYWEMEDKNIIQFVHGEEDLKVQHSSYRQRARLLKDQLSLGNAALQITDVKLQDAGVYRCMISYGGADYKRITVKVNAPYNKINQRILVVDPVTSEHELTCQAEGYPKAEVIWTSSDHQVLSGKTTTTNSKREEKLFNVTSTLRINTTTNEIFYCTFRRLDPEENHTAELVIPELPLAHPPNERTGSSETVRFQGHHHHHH

As a reminder, the IC50 is the point on the concentration scale where inhibition reaches its midpoint. As to `Cc1c(COc2cc(OCc3cncc(C#N)c3)c(CNC(CO)CO)cc2Cl)cccc1-c1cccc(C(=O)NCCN2CCS(=O)(=O)CC2)c1C` [Example 4005, 3′-((2-chloro-5-((5-cyanopyridin-3-yl)methoxy)-4-(((1,3-dihydroxypropan-2-yl)amino)methyl)phenoxy)methyl)-N-(2-(1,1-dioxidothiomorpholino)ethyl)-2,2′-dimethyl-[1,1′-biphenyl]-3-carboxamide], the half-maximal inhibitory concentration (IC50) (value given as range class) was in the range of 0.21 to 10 nM.

Regarding `CCNC(=O)c1cccc(-c2cccc(COc3cc(OCc4cncc(C#N)c4)c(CN4CCCC[C@H]4C(=O)O)cc3Cl)c2C)c1C` [Example 4006, (S)-1-(5-chloro-2-((5-cyanopyridin-3-yl)methoxy)-4-((3′-(ethylcarbamoyl)-2,2′-dimethyl-[1,1′-biphenyl]-3-yl)methoxy)benzyl)piperidine-2-carboxylic Acid], the IC50 (value given as range class) lay in the range of 10 to 100 nM.

On to `CCNC(=O)c1cccc(-c2cccc(COc3cc(OCc4cncc(C#N)c4)c(CN4CCC[C@H]4C(=O)O)cc3Cl)c2C)c1C` [Example 4007, (5-chloro-2-((5-cyanopyridin-3-yl)methoxy)-4-((3′-(ethylcarbamoyl)-2,2′-dimethyl-[1,1′-biphenyl]-3-yl)methoxy)benzyl)-L-proline], for which, where the note is “value given as range class”, the half-maximal inhibitory concentration (IC50) lay within 100 to 2000 nM.

`CCNC(=O)c1cccc(-c2cccc(COc3cc(OCc4cncc(C#N)c4)c(CN4C[C@H](O)C[C@H]4C(=O)O)cc3Cl)c2C)c1C` [Example 4008, (2S,4R)-1-(5-chloro-2-((5-cyanopyridin-3-yl)methoxy)-4-((3′-(ethylcarbamoyl)-2,2′-dimethyl-[1,1′-biphenyl]-3-yl)methoxy)benzyl)-4-hydroxypyrrolidine-2-carboxylic Acid]: where the note is “value given as range class”, the 50% inhibitory concentration (IC50) is 10 to 100 nM.

As to `CCNC(=O)c1cccc(-c2cccc(COc3cc(OCc4cncc(C#N)c4)c(CNC(CO)CO)cc3Cl)c2C)c1C` [Example 4009, 3′-((2-chloro-5-((5-cyanopyridin-3-yl)methoxy)-4-(((1,3-dihydroxypropan-2-yl)amino)methyl)phenoxy)methyl)-N-ethyl-2,2′-dimethyl-[1,1′-biphenyl]-3-carboxamide], where the note is “value given as range class”, the concentration for half-maximal inhibition (IC50) fell in the range of 10 to 100 nM.

In the case of `CCNC(=O)c1cccc(-c2cccc(COc3cc(OCc4cncc(C#N)c4)c(CNC(C)(CO)CO)cc3Cl)c2C)c1C` [Example 4010, 3′-((2-chloro-5-((5-cyanopyridin-3-yl)methoxy)-4-(((1,3-dihydroxy-2-methylpropan-2-yl)amino)methyl)phenoxy)methyl)-N-ethyl-2,2′-dimethyl-[1,1′-biphenyl]-3-carboxamide], for the setting “numeric IC50”, the IC50 worked out at 11 nM.

With `CNC(=O)c1cccc(-c2cccc(COc3cc(OCc4cncc(C#N)c4)c(CN4CCCC[C@H]4C(=O)O)cc3Cl)c2C)c1C` [Example 4011, (S)-1-(5-chloro-2-((5-cyanopyridin-3-yl)methoxy)-4-((2,2′-dimethyl-3′-(methylcarbamoyl)-[1,1′-biphenyl]-3-yl)methoxy)benzyl)piperidine-2-carboxylic Acid], the 50% inhibitory concentration (IC50) (value given as range class) fell in the range of 10 to 100 nM.

For the molecule `CNC(=O)c1cccc(-c2cccc(COc3cc(OCc4cncc(C#N)c4)c(CN4CCC[C@H]4C(=O)O)cc3Cl)c2C)c1C` [Example 4012, (5-chloro-2-((5-cyanopyridin-3-yl)methoxy)-4-((2,2′-dimethyl-3′-(methylcarbamoyl)-[1,1′-biphenyl]-3-yl)methoxy)benzyl)-L-proline], the IC50 (value given as range class) is 10 to 100 nM.

Turning to `CNC(=O)c1cccc(-c2cccc(COc3cc(OCc4cncc(C#N)c4)c(CN4C[C@H](O)C[C@H]4C(=O)O)cc3Cl)c2C)c1C` [Example 4013, (2S,4R)-1-(5-chloro-2-((5-cyanopyridin-3-yl)methoxy)-4-((2,2′-dimethyl-3′-(methylcarbamoyl)-[1,1′-biphenyl]-3-yl)methoxy)benzyl)-4-hydroxypyrrolidine-2-carboxylic Acid], the 50% inhibitory concentration (IC50) (value given as range class) lay in the range of 10 to 100 nM.

Turning to `CNC(=O)c1cccc(-c2cccc(COc3cc(OCc4cncc(C#N)c4)c(CN4C[C@@H](O)C[C@H]4C(=O)O)cc3Cl)c2C)c1C` [Example 4014, (2S,4S)-1-(5-chloro-2-((5-cyanopyridin-3-yl)methoxy)-4-((2,2′-dimethyl-3′-(methylcarbamoyl)-[1,1′-biphenyl]-3-yl)methoxy)benzyl)-4-hydroxypyrrolidine-2-carboxylic Acid], the half-maximal inhibitory concentration (IC50) (value given as range class) fell in the range of 2010 to 10000 nM.

Take `CNC(=O)c1cccc(-c2cccc(COc3cc(OCc4cncc(C#N)c4)c(CNC(CO)CO)cc3Cl)c2C)c1C` [Example 4015, 3′-((2-chloro-5-((5-cyanopyridin-3-yl)methoxy)-4-(((1,3-dihydroxypropan-2-yl)amino)methyl)phenoxy)methyl)-N,2,2′-trimethyl-[1,1′-biphenyl]-3-carboxamide]: the IC50 (value given as range class) is 0.21 to 10 nM.

In the case of `CNC(=O)c1cccc(-c2cccc(COc3cc(OCc4cncc(C#N)c4)c(CNC(C)(CO)CO)cc3Cl)c2C)c1C` [Example 4016, 3′-((2-chloro-5-((5-cyanopyridin-3-yl)methoxy)-4-(((1,3-dihydroxy-2-methylpropan-2-yl)amino)methyl)phenoxy)methyl)-N,2,2′-trimethyl-[1,1′-biphenyl]-3-carboxamide], the half-maximal inhibitory concentration (IC50) (value given as range class) is 0.21 to 10 nM.

Take `CCNC(=O)c1cccc(-c2cccc(COc3cc(OCc4cc(F)cc(F)c4)c(CN4CCCC[C@H]4C(=O)O)cc3Cl)c2C)c1C` [Example 4017, (S)-1-(5-chloro-2-((3,5-difluorobenzyl)oxy)-4-((3′-(ethylcarbamoyl)-2,2′-dimethyl-[1,1′-biphenyl]-3-yl)methoxy)benzyl)piperidine-2-carboxylic Acid]: under “value given as range class”, the IC50 was 100 to 2000 nM.

For the molecule `CCNC(=O)c1cccc(-c2cccc(COc3cc(OCc4cc(F)cc(F)c4)c(CN4CCC[C@H]4C(=O)O)cc3Cl)c2C)c1C` [Example 4018, (5-chloro-2-((3,5-difluorobenzyl)oxy)-4-((3′-(ethylcarbamoyl)-2,2′-dimethyl-[1,1′-biphenyl]-3-yl)methoxy)benzyl)-L-proline], the IC50 (value given as range class) was 100 to 2000 nM.

Consider `CCNC(=O)c1cccc(-c2cccc(COc3cc(OCc4cc(F)cc(F)c4)c(CN4C[C@H](O)C[C@H]4C(=O)O)cc3Cl)c2C)c1C` [Example 4019, (2S,4R)-1-(5-chloro-2-((3,5-difluorobenzyl)oxy)-4-((3′-(ethylcarbamoyl)-2,2′-dimethyl-[1,1′-biphenyl]-3-yl)methoxy)benzyl)-4-hydroxypyrrolidine-2-carboxylic Acid], for which, under “value given as range class”, the IC50 was 100 to 2000 nM.

For `CCNC(=O)c1cccc(-c2cccc(COc3cc(OCc4cc(F)cc(F)c4)c(CN4CCOC[C@H]4C(=O)O)cc3Cl)c2C)c1C` [Example 4020, (S)-4-(5-chloro-2-((3,5-difluorobenzyl)oxy)-4-((3′-(ethylcarbamoyl)-2,2′-dimethyl-[1,1′-biphenyl]-3-yl)methoxy)benzyl)morpholine-3-carboxylic Acid], the half-maximal inhibitory concentration (IC50) (value given as range class) lay within 2010 to 10000 nM.

In the case of `CCNC(=O)c1cccc(-c2cccc(COc3cc(OCc4cc(F)cc(F)c4)c(CNC(CO)CO)cc3Cl)c2C)c1C` [Example 4021, 3′-((2-chloro-5-((3,5-difluorobenzyl)oxy)-4-(((1,3-dihydroxypropan-2-yl)amino)methyl)phenoxy)methyl)-N-ethyl-2,2′-dimethyl-[1,1′-biphenyl]-3-carboxamide], under “value given as range class”, the IC50 was 100 to 2000 nM.

For the molecule `CCNC(=O)c1cccc(-c2cccc(COc3cc(OCc4cc(F)cc(F)c4)c(CNC(C)(CO)CO)cc3Cl)c2C)c1C` [Example 4022, 3′-((2-chloro-5-((3,5-difluorobenzyl)oxy)-4-(((1,3-dihydroxy-2-methylpropan-2-yl)amino)methyl)phenoxy)methyl)-N-ethyl-2,2′-dimethyl-[1,1′-biphenyl]-3-carboxamide], the half-inhibitory concentration (IC50) (value given as range class) is 100 to 2000 nM.

In the case of `CNC(=O)c1cccc(-c2cccc(COc3cc(OCc4cc(F)cc(F)c4)c(CN4CCCC[C@H]4C(=O)O)cc3Cl)c2C)c1C` [Example 4023, (S)-1-(5-chloro-2-((3,5-difluorobenzyl)oxy)-4-((2,2′-dimethyl-3′-(methylcarbamoyl)-[1,1′-biphenyl]-3-yl)methoxy)benzyl)piperidine-2-carboxylic Acid], the IC50 (value given as range class) was 100 to 2000 nM.

With `CNC(=O)c1cccc(-c2cccc(COc3cc(OCc4cc(F)cc(F)c4)c(CN4CCC[C@H]4C(=O)O)cc3Cl)c2C)c1C` [Example 4024, (5-chloro-2-((3,5-difluorobenzyl)oxy)-4-((2,2′-dimethyl-3′-(methylcarbamoyl)-[1,1′-biphenyl]-3-yl)methoxy)benzyl)-L-proline], for the setting “numeric IC50”, the IC50 is 87 nM.

On to `CNC(=O)c1cccc(-c2cccc(COc3cc(OCc4cc(F)cc(F)c4)c(CN4C[C@H](O)C[C@H]4C(=O)O)cc3Cl)c2C)c1C` [Example 4025, (2S,4R)-1-(5-chloro-2-((3,5-difluorobenzyl)oxy)-4-((2,2′-dimethyl-3′-(methylcarbamoyl)-[1,1′-biphenyl]-3-yl)methoxy)benzyl)-4-hydroxypyrrolidine-2-carboxylic Acid], for which the concentration for half-maximal inhibition (IC50) (value given as range class) was in the range of 100 to 2000 nM.

Take `CNC(=O)c1cccc(-c2cccc(COc3cc(OCc4cc(F)cc(F)c4)c(CN4C[C@@H](O)C[C@H]4C(=O)O)cc3Cl)c2C)c1C` [Example 4026, (2S,4S)-1-(5-chloro-2-((3,5-difluorobenzyl)oxy)-4-((2,2′-dimethyl-3′-(methylcarbamoyl)-[1,1′-biphenyl]-3-yl)methoxy)benzyl)-4-hydroxypyrrolidine-2-carboxylic Acid]: the 50% inhibitory concentration (IC50) (value given as range class) was 100 to 2000 nM.

Regarding `CNC(=O)c1cccc(-c2cccc(COc3cc(OCc4cc(F)cc(F)c4)c(CN4CCOC[C@H]4C(=O)O)cc3Cl)c2C)c1C` [Example 4027, (S)-4-(5-chloro-2-((3,5-difluorobenzyl)oxy)-4-((2,2′-dimethyl-3′-(methylcarbamoyl)-[1,1′-biphenyl]-3-yl)methoxy)benzyl)morpholine-3-carboxylic Acid], the IC50 (value given as range class) was 2010 to 10000 nM.

Turning to `CNC(=O)c1cccc(-c2cccc(COc3cc(OCc4cc(F)cc(F)c4)c(C=O)cc3Cl)c2C)c1C` [Example 4028, 3′-((2-chloro-5-((3,5-difluorobenzyl)oxy)-4-formylphenoxy)methyl)-N,2,2′-trimethyl-[1,1′-biphenyl]-3-carboxamide], the IC50 (value given as range class) was 100 to 2000 nM.
